# Results: US12133855B2, “Lipid-like nanocomplexes and uses thereof” (Trustees of Tufts College, priority 2018, dated 2024)
# How the values were obtained:
# GFP-HEK cells [1] = test: Cas9:sgRNA RNP delivery, GFP gene knockout; assay type: cell-based; settings: 48 h; 25 nM Cas9:sgRNA RNP; lipidoid 3.3 mg/L
# Method: For CRISPR/Cas9 gene knockout study, GFP-HEK cells were seeded in 48-well plate with a density of 2×10^4 cell/well. After 24 h of incubation, Cas9:sgRNA/LNP nanoparticles were added to the cells and incubated for 4 h, followed by media changed. After 48 h of incubation, the green emission from GFP was analyzed by flow cytometry.
# For the intracellular delivery, GFP-HEK cells were harvested after treating with Cas9:sgRNA/LNPs nanocomplexes for 48 h. GFP gene knockout efficacy was further evaluated by flow cytometry.
# GFP-HEK cells [2] = test system: GFP-HEK cells
# Method: Cell viability was measured by the standard MTT assay. HeLa-DsRed or GFP-HEK cells were seeded into 96-well plate with a density of 5×10^3 cell/well. (−30)GFP-Cre/LNP or Cas9:sgRNA/LNP nanoparticles were added after 24 h of incubation. The final concentration of protein is 25 nM and LNP is 3.3 mg/L. After incubating for 24 h or 48 h, the MTT reagent (5 mg/mL, in 30 μL PBS buffer) was added and the cells were incubated for another 4 h at 37° C. The cell culture media were then carefully removed and 200 μL of DMSO were added. The DMSO solution was transferred into another 96-well plate and the absorbance at 570 nm was recorded by microplate reader. All experiments were performed in quadruplicate.
# In vitro cytotoxicity of Cas9:sgRNA/LNPs against GFP-HEK cells was also evaluated by the MTT assay.
# HeLa-DsRed cells [3] = test: Intracellular delivery of (−30)GFP-Cre/LNP (GFP-positive cells); assay type: cell-based; settings: 25 nM (−30)GFP-Cre, lipidoid 3.3 mg/L; for GFP-positive cells: flow cytometry, 6 h; for green fluorescence emission (fluorescence microscopy): 6 h incubation
# Method: (§1) The final (−30)GFP-Cre protein concentration is 25 nM, and lipidoid concentration is 3.3 mg/L. For the gene recombination functional study, HeLa-DsRed cells were treated with same conditions and the red fluorescence emission from DsRed was analyzed by flow cytometry 24 h after delivery.
# A Cre recombinase protein fused to a negatively supercharged GFP variant ((−30)GFP-Cre) was used as a model cargo protein. The (−30)GFP-Cre protein was able to complex with cationic LNPs through electrostatic attraction and other types supramolecular interactions. The cellular uptake of LNPs could be determined by direct analysis of intracellular GFP fluorescent intensity as reported in Wang. HeLa-DsRed cells were used in this study, which expressed red fluorescent DsRed upon Cre-mediated recombination to facilitate the functional study of delivered proteins in the following study.
# The (−30)GFP-Cre protein loaded LNPs (GFP-Cre/LNPs) were prepared at first by simply mixing precalculated amount of aqueous solution of LNPs and protein at ambient conditions. For the intracellular delivery, after incubation with GFP-Cre/LNPs nanoparticles for 6 h, the GFP-positive cells were observed using fluorescence microscopy, harvested and counted by flow cytometry. […] The intracellular (−30)GFP-Cre protein delivery efficiencies were further quantified by flow cytometry.
# HeLa cells [4] = test: Internalization of Dox loaded nanoparticles (flow cytometry); assay type: cell-based; settings: 8 h of exposure
# Method: After 24 h of incubation at 37° C., 5% CO2, Dox, CPT or Oxa loaded nanoparticles were added to the cells and incubated for 8 h followed by media change. The cells were then incubated for another 40 h before cell viability analysis.
# Doxorubicin hydrochloride (Dox) (water soluble), and camptothecin (CPT) and oxaliplatin (Oxa) (water insoluble) were encapsulated into LNPs (see experimental section) and tested against HeLa cells. […] Then the internalization of Dox loaded 75-OCholB LNP (Dox/75-OCholB) was studied after 8 h of exposure using flow cytometry.
# [5] = TEM size of lipidoid nanoparticles; assay type: physicochemical; settings: TEM images of LNPs
# Method: (§2) All chemicals used for lipidoids synthesis were purchased from Sigma-Aldrich without further purification unless otherwise noted. (−30)GFP-Cre recombinase, S. pyogenes Cas9 (spCas9) and sgRNA were generated following the protocols reported in Wang at al., Proc. Natl. Acad. Sci. USA, 2016, 113, 2868-2873 (“Wang”). HeLa-DsRed and GFP-HEK cells were cultured in Dulbecco's modified eagle's medium (DMEM, Sigma-Aldrich) with 10% fetal bovine serum (FBS, Sigma-Aldrich) and 1% penicillin-streptomycin (Gibco). All ^1H NMR spectra were recorded on a Bruker AVIII 500 MHz NMR spectrometer operated in the Fourier transform mode. Hydrodynamic size and polydispersity index of nanoparticles were measured by Zeta-PALS particle size analyzer (Brookhaven Instruments). The apparent pKa values of lipidoids were determined using 2-(p-toluidinynaphthalene-6-sulphonic acid) (TNS, Sigma-Aldrich) as fluorescent probe following the protocols reported in Heyes et al., J. Controlled Release, 2005, 107, 276-287. TEM measurements were performed on a FEI Technai Transmission Electron Microscope. Fluorescence images of tissue slices were obtained using BZ-X Analyzer fluorescence microscope.
# (§3) The morphologies of LNPs were further studied by the transmission electron microscopy (TEM). […] Subsequently, the stability of LNPs thus prepared was examined by DLS and fluorescence measurements.
# The morphologies of OCholB fully substituted LNPs were then examined by transmission electron microscopy (TEM). […] In contrast, the vesicular structures were not well-formed for 87-OCholB and 90-OCholB compared to their counterparts, and amorphous aggregates were observed instead.
# [6] = Hydrodynamic size and polydispersity of lipidoid nanoparticles by DLS; assay type: physicochemical; settings: blank LNPs
# Method: as §2
# Lipidoids nanoparticles (LNPs) were fabricated in sodium acetate buffer (25 mM, pH 5.2) by following the simple ultrasonication and vortex procedures described above. Hydrodynamic sizes and polydispersity index (PDI) of LNPs were measured by dynamic laser scattering (DLS) analysis.
# Lipidoids were fabricated into nanoparticles for all delivery applications.
# In this context, two strategies were tested, i.e., synthesizing new OCholB-tailed lipidoids with single tail rather than full substitution, and adding helper lipids (phospholipids) into fully substituted OCholB LNPs. […] The delivery efficacies of the single-tailed LNPs were first tested using GFP mRNA against HeLa cells (lipidoid/mRNA=10/1; [mRNA]=0.86 μg mL^−1; 24 h of exposure). […] We then tried to add helper lipids into the original two-tailed OCholB lipidoid nanoparticles formulations. As a proof-of-concept, DOPE was mixed with OCholB lipidoids (lipidoid/DOPE=1/1, weight ratio) and nanoparticles were fabricated (noted as 75-OCholB-F, 76-OCholB-F, and 77-OCholB-F) and loaded with Cas9 mRNA and sgRNA (mRNA/sgRNA=1/1, weight ratio).
# [7] = Storage stability of LNPs (time-dependent DLS, DiO/DiI FRET); assay type: physicochemical; settings: DiO and DiI loaded LNPs, five days of storage
# Method: as §3
# The cell (HeLa and HeLa-DsRed cell lines) internalization studies were conducted using small molecular hydrophobic (nile red) and hydrophilic (calcein) fluorescent dyes and macromolecular fluorescent recombinant protein ((−30)GFP-Cre) loaded OCholB LNPs. The stabilities of cargo-loaded LNPs were examined at first using time-dependent DLS and fluorescence measurements.
# HeLa-DsRed cells [8] = test: Cre-mediated gene recombination (DsRed expression) after (−30)GFP-Cre/LNP delivery; assay type: cell-based; settings: 24 h; 25 nM (−30)GFP-Cre; lipidoid 3.3 mg/L
# Method: as §1
# The top 12 of LNPs identified through intracellular delivery screening experiments were further tested for gene recombination using HeLa-DsRed model cells. The expression of DsRed from Cre protein mediated gene recombination was analyzed after 24 h of co-incubation with free (−30)GFP-Cre protein and protein loaded LNPs. […] Most of the test LNPs, on the other hand, efficiently delivered (−30)GFP-Cre protein and induced gene recombination, with 14-46% of the cells positive for DsRed.
# Ai14 mice = test: In vivo (−30)GFP-Cre delivery with formulated O17 LNPs, intravenous, tdTomato expression; design: species or system mouse; settings: day 0 and day 5, 100 μg protein each, organs at day 20
# Method: Formulated LNPs (lipidoid/Cholesterol/DOPE/DSPE-PEG2k=16/4/1/4, weight ratio) were prepared for protein loading and mice injection. Ai14 mice were housed in a temperature and humidity controlled facility with a 12 h light/dark cycle. Two mice in each group were injected with (−30)GFP-Cre/LNPs formulations on day 0 and 5, with 100 μg protein for each injection. Organs including heart, liver, spleen, lung and kidney from all groups were collected 20 days after injections. The tissues were fixed overnight in 4% paraformaldehyde (PFA) before being sectioning into 10 μm slices. The slices were collected and stained with DAPI for fluorescence imaging.
# Upon Cre mediated gene recombination, the STOP cassette was removed, resulting in tdTomato expression. Considering the different performances of cargo loaded LNPs in vitro and in vivo, three LNPs with same amine heads and different tails (76-O17O, 76-O17S and 76-O17Se) were tested in this study. Formulated LNPs (lipidoid/cholesterol/DOPE/DSPE-PEG2k=16/4/1/4, weight ratio) were prepared. Mice were injected (intravenous injection) with (−30)GFP-Cre loaded the formulated LNPs (GFP-Cre/76-O17O, GFP-Cre/76-O17S, and GFP-Cre/76-O17Se) at day 0 and day 5 (100 μg of protein for each injection). […] Fluorescence images with lower magnification and larger field of view were obtained. […]
# HeLa cells [9] = test: Internalization of calcein loaded nanoparticles; assay type: cell-based; settings: 8 h of exposure
# Method: The internalization kinetics and efficiencies of OCholB LNPs were then studied using NR loaded LNPs and HeLa cells. […] Next, all of the NR delivery efficiencies of eight OCholB LNPs were determined after 8 h of exposure. […] Representative fluorescent images of NR/LNPs (NR/75-OCholB, NR/76-OCholB and NR/77-OCholB) treated HeLa cells are shown in FIG. 12D, from which it is easily observed that NR was delivered into the cells and mainly distributed in cytoplasm, by OCholB LNPs. Next, the internalization of negatively charged hydrophilic fluorescent dye, calcein, was studied. […] Next, the use of OCholB LNPs for the intracellular delivery of macromolecular cargo was explored, using fluorescent recombinant (−30)GFP-Cre protein and HeLa-DsRed cells as the model system. […] Delivery efficiency was tested at a range of (−30)GFP-Cre protein concentrations (25, 50 and 100 nM), with a consistent lipid/protein ratio (i.e., delivery with the final lipid concentration of 1.7, 3.3, and 6.6 μg mL^−1 respectively). 33.2%, 43.8% and 74% of GFP positive (GFP^+) cells were recorded for (−30)GFP-Cre/Lpf2k treated cells with the concentration of (−30)GFP-Cre 25 nM, 50 nM and 100 nM, respectively. […]
SMILES,GFP knockout (GFP-negative cells) (GFP-HEK cells [1]),cell viability (GFP-HEK cells [2]),size measured by TEM [5],averaged hydrodynamic diameter (<Dh>) [6],"polydispersity index (PDI, μ2/I^2) [6]",green fluorescence emission (fluorescence microscopy) (HeLa-DsRed cells [3]),other results
CCCCCCCCCCCCCC[Se]CCOC(=O)CCN(CCCN(C)C)CCCN(CCC(=O)OCC[Se]CCCCCCCCCCCCCC)CCC(=O)OCC[Se]CCCCCCCCCCCCCC [Lipidoid 400-O17Se],57.4%,66.7%,,,,,GFP-positive cells (HeLa-DsRed cells [3]): 42%
CCCCCCCCCCCCCC[Se]CCOC(=O)CCN(CCCN(CC)CC)CCC(=O)OCC[Se]CCCCCCCCCCCCCC [Lipidoid 81-O17Se],54.7%,97.7%,,,,,
CCCCCCCCCCCCCC[Se]CCOC(=O)CCN(CCCN(C)C)CCC(=O)OCC[Se]CCCCCCCCCCCCCC [Lipidoid 80-O17Se],57.7%,68.2%,,,,,GFP-positive cells (HeLa-DsRed cells [3]): 39%
"COc1cccc2c1C(=O)c1c(O)c3c(c(O)c1C2=O)C[C@@](O)(C(=O)CO)C[C@@H]3O[C@H]1C[C@H](N)[C@H](O)[C@H](C)O1.Cl [free Dox, Doxorubicin hydrochloride]",,,,,,,mean fluorescence intensity vs untreated control cells (internalization) (HeLa cells [4]): could be readily internalized
CCCCCCCCCCCCCC[Se]CCOC(=O)CCN(CCC(=O)OCC[Se]CCCCCCCCCCCCCC)CCN1CCCC1 [Lipidoid 76-O17Se],50.2%,76.3%,133 nm,129.4 nm,0.18,bright green fluorescence emission,FRET ratio (I575/I575+I505) variations [7]: negligible; cells positive for DsRed (protein transfection efficiency) (HeLa-DsRed cells [8]): 36.1%; tdTomato signal in sections of lung (Ai14 mice): strong tdTomato signals
CCCCCCCCCCCCCCSCCOC(=O)CCN(CCC(=O)OCCSCCCCCCCCCCCCCC)CCN1CCCC1 [Lipidoid 76-O17S],,,94 nm,114.3 nm,0.24,bright green fluorescence emission,cells positive for DsRed (protein transfection efficiency) (HeLa-DsRed cells [8]): 40.8%; tdTomato signal in sections of lung (Ai14 mice): strong tdTomato signals
CCCCCCCCCCCCCCOCCOC(=O)CCN(CCC(=O)OCCOCCCCCCCCCCCCCC)CCN1CCCC1 [Lipidoid 76-O17O],,,145 nm,170.1 nm,0.37,bright green fluorescence emission,
"O=C(O)CN(CC(=O)O)Cc1cc2c(cc1O)Oc1cc(O)c(CN(CC(=O)O)CC(=O)O)cc1C21OC(=O)c2ccccc21 [free calcein, calcein, reference compound]",,,,,,,mean fluorescent intensity vs free calcein-treated cells (HeLa cells [9]): cannot enter into the cells efficiently
